In USRE42890E1, “Furazanobenzimidazoles” (Basilea Pharmaceutica AG, priority 2003, dated 2011):

System: HeLa
Assay: MTS proliferation assay, HeLa
Type: cell-based, human
Conditions: 72 h incubation, read-out: MTS proliferation assay IC 50 HeLa
Outline: (§1)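 Human lines, EGFP-transfected or not, grow in RPMI-1640 plus 5% or 10% FCS and 2-mercaptoethanol. They receive test compound for 72 h at final concentrations of 10, 3, 1 and 0.3 μM, and MTS conversion is measured at 492 nm.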

SMILES	IC50 [nM]
Nc1nonc1-c1nc2ccccc2n1COc1ccc(C(F)(F)F)cc1 [Example 91]	100 to 1000

Same assay, conditions: Homo sapiens, 72 h incubation, read-out: MTS proliferation assay IC 50 HeLa

SMILES	IC50 [nM]
Nc1nonc1-c1nc2ccccc2n1COc1ccccc1 [Example 7, 4-(1-Phenoxymethyl-1H-benzimidazol-2-yl)-furazan-3-ylamine]	100 to 1000
Nc1nonc1-c1nc2ccccc2n1COc1ccc(F)cc1 [Example 8, 4-[1-(4-Fluorophenoxymethyl)-1H-benzimidazol-2-yl]-furazan-3-ylamine]	100 to 1000

System: Jily
Assay: MTS proliferation assay, Jily
Type: cell-based
Conditions: 72 h incubation, read-out: MTS proliferation assay IC 50 Jily
Outline: (§2)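 Seed cells in complete RPMI-1640 medium and allow 24 h attachment. Add compounds to final 10 μM, 3 μM, 1 μM or 0.3 μM and incubate 72 h at 37° C. Add MTS, incubate 3 h more, then measure absorption at 492 nm.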

SMILES	IC50 [nM]
Nc1nonc1-c1nc2ccccc2n1COc1ccccc1 [Example 7, 4-(1-Phenoxymethyl-1H-benzimidazol-2-yl)-furazan-3-ylamine]	100 to 1000
Nc1nonc1-c1nc2ccccc2n1COc1ccc(C(F)(F)F)cc1 [Example 91]	100 to 1000
Nc1nonc1-c1nc2ccccc2n1COc1ccc(F)cc1 [Example 8, 4-[1-(4-Fluorophenoxymethyl)-1H-benzimidazol-2-yl]-furazan-3-ylamine]	100 to 1000

System: adherent cells or suspension cells
Assay: Hoechst 33342 nuclear staining (fraction of apoptotic nuclei)
Type: cell-based
Parameters: key: 0 relating to no activity; 1 relating to weak activity comprising less than 70% of the cells; score 2 relating to strong activity comprising more than 70% of the cells
Conditions: H460, conc 0.01 μm

SMILES	Hoechst 33342 nuclear staining score
Nc1nonc1-c1nc2ccccc2n1COc1ccccc1 [Example 7, 4-(1-Phenoxymethyl-1H-benzimidazol-2-yl)-furazan-3-ylamine]	0
Nc1nonc1-c1nc2ccccc2n1COc1ccc(F)cc1 [Example 8, 4-[1-(4-Fluorophenoxymethyl)-1H-benzimidazol-2-yl]-furazan-3-ylamine]	0

Same assay, conditions: H460, conc 0.1 μm

SMILES	Hoechst 33342 nuclear staining score
Nc1nonc1-c1nc2ccccc2n1COc1ccccc1 [Example 7, 4-(1-Phenoxymethyl-1H-benzimidazol-2-yl)-furazan-3-ylamine]	0
Nc1nonc1-c1nc2ccccc2n1COc1ccc(F)cc1 [Example 8, 4-[1-(4-Fluorophenoxymethyl)-1H-benzimidazol-2-yl]-furazan-3-ylamine]	0

Same assay, conditions: H460, conc 1 μm

SMILES	Hoechst 33342 nuclear staining score
Nc1nonc1-c1nc2ccccc2n1COc1ccccc1 [Example 7, 4-(1-Phenoxymethyl-1H-benzimidazol-2-yl)-furazan-3-ylamine]	2 (score 2 relating to strong activity comprising more than 70% of the cells)
Nc1nonc1-c1nc2ccccc2n1COc1ccc(F)cc1 [Example 8, 4-[1-(4-Fluorophenoxymethyl)-1H-benzimidazol-2-yl]-furazan-3-ylamine]	0

Same assay, conditions: HeLa, conc 0.01 μm

SMILES	Hoechst 33342 nuclear staining score
Nc1nonc1-c1nc2ccccc2n1COc1ccccc1 [Example 7, 4-(1-Phenoxymethyl-1H-benzimidazol-2-yl)-furazan-3-ylamine]	0
Nc1nonc1-c1nc2ccccc2n1COc1ccc(C(F)(F)F)cc1 [Example 91]	0
Nc1nonc1-c1nc2ccccc2n1COc1ccc(F)cc1 [Example 8, 4-[1-(4-Fluorophenoxymethyl)-1H-benzimidazol-2-yl]-furazan-3-ylamine]	0

Same assay, conditions: HeLa, conc 0.1 μm

SMILES	Hoechst 33342 nuclear staining score
Nc1nonc1-c1nc2ccccc2n1COc1ccccc1 [Example 7, 4-(1-Phenoxymethyl-1H-benzimidazol-2-yl)-furazan-3-ylamine]	0
Nc1nonc1-c1nc2ccccc2n1COc1ccc(C(F)(F)F)cc1 [Example 91]	0
Nc1nonc1-c1nc2ccccc2n1COc1ccc(F)cc1 [Example 8, 4-[1-(4-Fluorophenoxymethyl)-1H-benzimidazol-2-yl]-furazan-3-ylamine]	0

Same assay, conditions: HeLa, conc 1 μm

SMILES	Hoechst 33342 nuclear staining score
Nc1nonc1-c1nc2ccccc2n1COc1ccccc1 [Example 7, 4-(1-Phenoxymethyl-1H-benzimidazol-2-yl)-furazan-3-ylamine]	2 (score 2 relating to strong activity comprising more than 70% of the cells)
Nc1nonc1-c1nc2ccccc2n1COc1ccc(C(F)(F)F)cc1 [Example 91]	0
Nc1nonc1-c1nc2ccccc2n1COc1ccc(F)cc1 [Example 8, 4-[1-(4-Fluorophenoxymethyl)-1H-benzimidazol-2-yl]-furazan-3-ylamine]	1 (1 relating to weak activity comprising less than 70% of the cells)

Same assay, conditions: Jily, conc 0.01 μm

SMILES	Hoechst 33342 nuclear staining score
Nc1nonc1-c1nc2ccccc2n1COc1ccccc1 [Example 7, 4-(1-Phenoxymethyl-1H-benzimidazol-2-yl)-furazan-3-ylamine]	0
Nc1nonc1-c1nc2ccccc2n1COc1ccc(C(F)(F)F)cc1 [Example 91]	0
Nc1nonc1-c1nc2ccccc2n1COc1ccc(F)cc1 [Example 8, 4-[1-(4-Fluorophenoxymethyl)-1H-benzimidazol-2-yl]-furazan-3-ylamine]	0

Same assay, conditions: Jily, conc 0.1 μm

SMILES	Hoechst 33342 nuclear staining score
Nc1nonc1-c1nc2ccccc2n1COc1ccccc1 [Example 7, 4-(1-Phenoxymethyl-1H-benzimidazol-2-yl)-furazan-3-ylamine]	0
Nc1nonc1-c1nc2ccccc2n1COc1ccc(C(F)(F)F)cc1 [Example 91]	0
Nc1nonc1-c1nc2ccccc2n1COc1ccc(F)cc1 [Example 8, 4-[1-(4-Fluorophenoxymethyl)-1H-benzimidazol-2-yl]-furazan-3-ylamine]	0

Same assay, conditions: Jily, conc 1 μm

SMILES	Hoechst 33342 nuclear staining score
Nc1nonc1-c1nc2ccccc2n1COc1ccccc1 [Example 7, 4-(1-Phenoxymethyl-1H-benzimidazol-2-yl)-furazan-3-ylamine]	2 (score 2 relating to strong activity comprising more than 70% of the cells)
Nc1nonc1-c1nc2ccccc2n1COc1ccc(C(F)(F)F)cc1 [Example 91]	2 (score 2 relating to strong activity comprising more than 70% of the cells)
Nc1nonc1-c1nc2ccccc2n1COc1ccc(F)cc1 [Example 8, 4-[1-(4-Fluorophenoxymethyl)-1H-benzimidazol-2-yl]-furazan-3-ylamine]	0

Same assay, conditions: Jurkat, conc 0.01 μm

SMILES	Hoechst 33342 nuclear staining score
Nc1nonc1-c1nc2ccccc2n1COc1ccccc1 [Example 7, 4-(1-Phenoxymethyl-1H-benzimidazol-2-yl)-furazan-3-ylamine]	0
Nc1nonc1-c1nc2ccccc2n1COc1ccc(C(F)(F)F)cc1 [Example 91]	0
Nc1nonc1-c1nc2ccccc2n1COc1ccc(F)cc1 [Example 8, 4-[1-(4-Fluorophenoxymethyl)-1H-benzimidazol-2-yl]-furazan-3-ylamine]	0

Same assay, conditions: Jurkat, conc 0.1 μm

SMILES	Hoechst 33342 nuclear staining score
Nc1nonc1-c1nc2ccccc2n1COc1ccccc1 [Example 7, 4-(1-Phenoxymethyl-1H-benzimidazol-2-yl)-furazan-3-ylamine]	0
Nc1nonc1-c1nc2ccccc2n1COc1ccc(C(F)(F)F)cc1 [Example 91]	0
Nc1nonc1-c1nc2ccccc2n1COc1ccc(F)cc1 [Example 8, 4-[1-(4-Fluorophenoxymethyl)-1H-benzimidazol-2-yl]-furazan-3-ylamine]	0

Same assay, conditions: Jurkat, conc 1 μm

SMILES	Hoechst 33342 nuclear staining score
Nc1nonc1-c1nc2ccccc2n1COc1ccccc1 [Example 7, 4-(1-Phenoxymethyl-1H-benzimidazol-2-yl)-furazan-3-ylamine]	2 (score 2 relating to strong activity comprising more than 70% of the cells)
Nc1nonc1-c1nc2ccccc2n1COc1ccc(C(F)(F)F)cc1 [Example 91]	2 (score 2 relating to strong activity comprising more than 70% of the cells)
Nc1nonc1-c1nc2ccccc2n1COc1ccc(F)cc1 [Example 8, 4-[1-(4-Fluorophenoxymethyl)-1H-benzimidazol-2-yl]-furazan-3-ylamine]	1 (1 relating to weak activity comprising less than 70% of the cells)

Same assay, conditions: MRC5, conc 0.01 μm

SMILES	Hoechst 33342 nuclear staining score
Nc1nonc1-c1nc2ccccc2n1COc1ccccc1 [Example 7, 4-(1-Phenoxymethyl-1H-benzimidazol-2-yl)-furazan-3-ylamine]	0
Nc1nonc1-c1nc2ccccc2n1COc1ccc(C(F)(F)F)cc1 [Example 91]	0
Nc1nonc1-c1nc2ccccc2n1COc1ccc(F)cc1 [Example 8, 4-[1-(4-Fluorophenoxymethyl)-1H-benzimidazol-2-yl]-furazan-3-ylamine]	0

Same assay, conditions: MRC5, conc 0.1 μm

SMILES	Hoechst 33342 nuclear staining score
Nc1nonc1-c1nc2ccccc2n1COc1ccccc1 [Example 7, 4-(1-Phenoxymethyl-1H-benzimidazol-2-yl)-furazan-3-ylamine]	0
Nc1nonc1-c1nc2ccccc2n1COc1ccc(C(F)(F)F)cc1 [Example 91]	0
Nc1nonc1-c1nc2ccccc2n1COc1ccc(F)cc1 [Example 8, 4-[1-(4-Fluorophenoxymethyl)-1H-benzimidazol-2-yl]-furazan-3-ylamine]	0

Same assay, conditions: MRC5, conc 1 μm

SMILES	Hoechst 33342 nuclear staining score
Nc1nonc1-c1nc2ccccc2n1COc1ccccc1 [Example 7, 4-(1-Phenoxymethyl-1H-benzimidazol-2-yl)-furazan-3-ylamine]	0
Nc1nonc1-c1nc2ccccc2n1COc1ccc(C(F)(F)F)cc1 [Example 91]	0
Nc1nonc1-c1nc2ccccc2n1COc1ccc(F)cc1 [Example 8, 4-[1-(4-Fluorophenoxymethyl)-1H-benzimidazol-2-yl]-furazan-3-ylamine]	0

Same assay, conditions: PBLs, conc 0.01 μm

SMILES	Hoechst 33342 nuclear staining score
Nc1nonc1-c1nc2ccccc2n1COc1ccccc1 [Example 7, 4-(1-Phenoxymethyl-1H-benzimidazol-2-yl)-furazan-3-ylamine]	0
Nc1nonc1-c1nc2ccccc2n1COc1ccc(C(F)(F)F)cc1 [Example 91]	0
Nc1nonc1-c1nc2ccccc2n1COc1ccc(F)cc1 [Example 8, 4-[1-(4-Fluorophenoxymethyl)-1H-benzimidazol-2-yl]-furazan-3-ylamine]	0

Same assay, conditions: PBLs, conc 0.1 μm

SMILES	Hoechst 33342 nuclear staining score
Nc1nonc1-c1nc2ccccc2n1COc1ccccc1 [Example 7, 4-(1-Phenoxymethyl-1H-benzimidazol-2-yl)-furazan-3-ylamine]	0
Nc1nonc1-c1nc2ccccc2n1COc1ccc(C(F)(F)F)cc1 [Example 91]	0
Nc1nonc1-c1nc2ccccc2n1COc1ccc(F)cc1 [Example 8, 4-[1-(4-Fluorophenoxymethyl)-1H-benzimidazol-2-yl]-furazan-3-ylamine]	0

Same assay, conditions: PBLs, conc 1 μm

SMILES	Hoechst 33342 nuclear staining score
Nc1nonc1-c1nc2ccccc2n1COc1ccccc1 [Example 7, 4-(1-Phenoxymethyl-1H-benzimidazol-2-yl)-furazan-3-ylamine]	0
Nc1nonc1-c1nc2ccccc2n1COc1ccc(C(F)(F)F)cc1 [Example 91]	0
Nc1nonc1-c1nc2ccccc2n1COc1ccc(F)cc1 [Example 8, 4-[1-(4-Fluorophenoxymethyl)-1H-benzimidazol-2-yl]-furazan-3-ylamine]	0

System: MRC5
Assay: MTS proliferation assay, MRC5
Type: cell-based
Conditions: Homo sapiens; MRC5, 72 h incubation; read-out: MTS proliferation assay IC 50 MRC5
Outline: as §2

SMILES	IC50 [nM]
Nc1nonc1-c1nc2ccccc2n1COc1ccccc1 [Example 7, 4-(1-Phenoxymethyl-1H-benzimidazol-2-yl)-furazan-3-ylamine]	100 to 1000
Nc1nonc1-c1nc2ccccc2n1COc1ccc(F)cc1 [Example 8, 4-[1-(4-Fluorophenoxymethyl)-1H-benzimidazol-2-yl]-furazan-3-ylamine]	100 to 1000

Same assay, conditions: MRC5, 72 h incubation; read-out: MTS proliferation assay IC 50 MRC5

SMILES	IC50 [nM]
Nc1nonc1-c1nc2ccccc2n1COc1ccc(C(F)(F)F)cc1 [Example 91]	100 to 1000

System: HT1080
Assay: MTS proliferation assay, HT1080
Type: cell-based, human
Conditions: HT1080, 72 h incubation; read-out: MTS proliferation assay IC 50 HT1080
Outline: as §1

SMILES	IC50 [nM]
Nc1nonc1-c1nc2ccccc2n1COc1ccc(C(F)(F)F)cc1 [Example 91]	100 to 1000

Same assay, conditions: Homo sapiens, HT-1080; HT1080, 72 h incubation; read-out: MTS proliferation assay IC 50 HT1080

SMILES	IC50 [nM]
Nc1nonc1-c1nc2ccccc2n1COc1ccccc1 [Example 7, 4-(1-Phenoxymethyl-1H-benzimidazol-2-yl)-furazan-3-ylamine]	100 to 1000
Nc1nonc1-c1nc2ccccc2n1COc1ccc(F)cc1 [Example 8, 4-[1-(4-Fluorophenoxymethyl)-1H-benzimidazol-2-yl]-furazan-3-ylamine]	100 to 1000

System: Jurkat
Assay: MTS proliferation assay, Jurkat
Type: cell-based, human
Conditions: 72 h incubation, read-out: MTS proliferation assay IC 50 Jurkat
Outline: as §1

SMILES	IC50 [nM]
Nc1nonc1-c1nc2ccccc2n1COc1ccc(C(F)(F)F)cc1 [Example 91]	100 to 1000

Same assay, conditions: Homo sapiens, 72 h incubation, read-out: MTS proliferation assay IC 50 Jurkat

SMILES	IC50 [nM]
Nc1nonc1-c1nc2ccccc2n1COc1ccccc1 [Example 7, 4-(1-Phenoxymethyl-1H-benzimidazol-2-yl)-furazan-3-ylamine]	100 to 1000
Nc1nonc1-c1nc2ccccc2n1COc1ccc(F)cc1 [Example 8, 4-[1-(4-Fluorophenoxymethyl)-1H-benzimidazol-2-yl]-furazan-3-ylamine]	100 to 1000
